Like-named read-outs stand apart in the source and are kept apart here.

The text below walks through data of patent US11655235B2, “Pyrrolidine and piperidine compounds” (YUHAN CORPORATION, priority 2019, dated 2023).

Format in all cases: biochemical
One experiment has as its target DPP4 (Homo sapiens, UniProt P27487). Briefly: DPP4 inhibition, fluorogenic substrate H-Gly-Pro-AMC. On the set-up: purchased R&D Systems.
The next experiment concerns the target T1, recombinant human DPP9 (Homo sapiens, UniProt Q86TI2).
T1 construct: purchased R&D Systems
In words: DPP9 inhibition, fluorogenic substrate H-Gly-Pro-AMC. In a few lines:
(§1)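 Enzyme per reaction: 50 ng DPP9, 20 ng DPP8, 10 ng each DPP7 and PREP. Compounds were serially diluted (8 points, up to 0.5% DMSO) and incubated at 25 °C.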

The next experiment addresses T2, Recombinant human FAP (Homo sapiens, UniProt Q12884).
T2 construct: purchased R&D systems
T2 sequence (Q12884 1-760): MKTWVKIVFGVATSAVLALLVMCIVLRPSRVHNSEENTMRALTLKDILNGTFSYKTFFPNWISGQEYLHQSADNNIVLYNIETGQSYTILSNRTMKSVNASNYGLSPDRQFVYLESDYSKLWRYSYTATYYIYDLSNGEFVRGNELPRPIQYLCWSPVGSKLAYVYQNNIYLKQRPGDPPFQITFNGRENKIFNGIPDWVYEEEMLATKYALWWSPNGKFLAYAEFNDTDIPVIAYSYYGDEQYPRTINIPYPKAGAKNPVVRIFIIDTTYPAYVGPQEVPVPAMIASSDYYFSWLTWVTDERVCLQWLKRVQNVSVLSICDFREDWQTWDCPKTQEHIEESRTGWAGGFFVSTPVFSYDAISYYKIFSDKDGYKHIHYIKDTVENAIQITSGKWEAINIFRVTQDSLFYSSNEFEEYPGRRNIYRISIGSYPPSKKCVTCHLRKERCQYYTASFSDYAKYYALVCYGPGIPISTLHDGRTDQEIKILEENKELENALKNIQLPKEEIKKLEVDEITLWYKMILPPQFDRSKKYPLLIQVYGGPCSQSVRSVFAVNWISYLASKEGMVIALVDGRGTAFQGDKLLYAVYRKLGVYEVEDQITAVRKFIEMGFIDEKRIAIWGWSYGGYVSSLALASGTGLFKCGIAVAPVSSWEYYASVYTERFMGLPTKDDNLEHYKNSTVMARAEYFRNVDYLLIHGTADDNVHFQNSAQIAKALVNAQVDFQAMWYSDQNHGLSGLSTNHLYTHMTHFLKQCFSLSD
Briefly: FAP inhibition, fluorogenic substrate Z-Gly-Pro-AMC. In a few lines:
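Recombinant human FAP, 10 ng per reaction, in 50 mM Tris pH 7.5 with 1 M NaCl and 1 mg/ml BSA at 25° C; substrate Z-Gly-Pro-AMC, ≤0.1% DMSO. AMC fluorescence read at ex 380/em 460 nm; % signal-rate decrease vs no-inhibitor control, 8-point curves fitted to a four-parameter logistic for IC50.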

A further experiment concerns the target T3, recombinant human PREP (Homo sapiens, UniProt P48147).
T3 construct: purchased R&D System
T3 sequence (P48147 1-710): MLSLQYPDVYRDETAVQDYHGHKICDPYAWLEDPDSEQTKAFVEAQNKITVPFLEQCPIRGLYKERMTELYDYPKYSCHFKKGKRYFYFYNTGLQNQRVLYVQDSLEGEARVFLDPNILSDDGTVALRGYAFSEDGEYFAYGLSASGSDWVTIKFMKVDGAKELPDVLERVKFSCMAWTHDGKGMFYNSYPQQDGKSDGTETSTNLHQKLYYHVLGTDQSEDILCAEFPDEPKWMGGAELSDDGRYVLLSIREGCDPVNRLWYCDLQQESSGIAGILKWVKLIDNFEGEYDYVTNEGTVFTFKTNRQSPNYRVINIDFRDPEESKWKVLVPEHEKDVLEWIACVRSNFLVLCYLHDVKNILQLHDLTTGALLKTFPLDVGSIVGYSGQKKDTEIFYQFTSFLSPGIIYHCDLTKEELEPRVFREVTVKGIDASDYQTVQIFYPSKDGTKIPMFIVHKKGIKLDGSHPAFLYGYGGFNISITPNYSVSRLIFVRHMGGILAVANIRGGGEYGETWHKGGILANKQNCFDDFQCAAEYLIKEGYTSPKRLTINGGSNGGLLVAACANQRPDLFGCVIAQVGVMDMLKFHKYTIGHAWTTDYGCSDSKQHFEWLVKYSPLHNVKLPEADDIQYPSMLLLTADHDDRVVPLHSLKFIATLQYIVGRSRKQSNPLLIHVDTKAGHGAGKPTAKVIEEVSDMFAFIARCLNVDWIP
Briefly: PREP inhibition, fluorogenic substrate Z-Gly-Pro-AMC. The following applies: Inhibitory Activity (IC50, nM) PREP. In a few lines: as §1

In another experiment the target is T4, recombinant human DPP8 (Homo sapiens, UniProt Q6V1X1).
T4 construct: purchased PBS Bioscience
In words: DPP8 inhibition, fluorogenic substrate Z-Ala-Pro-AMC. Summed up:
as §1

The next experiment concerns the target T5, recombinant human DPP7 (Homo sapiens, UniProt Q9UHL4).
T5 construct: purchased R&D Systems
Briefly: DPP7 inhibition, fluorogenic substrate Lys-Pro-AMC. In a few lines:
as §1

Setting [1] is: 25° C., H-Gly-Pro-AMC substrate.
The mark [2] stands for this setting: 25° C., Z-Gly-Pro-AMC substrate.
Where [3] appears, read: 25° C., Z-Ala-Pro-AMC substrate.
Where [4] appears, read: recombinant human FAP, substrate Z-Gly-Pro-AMC.

T4 sequence (Q6V1X1 whole entry): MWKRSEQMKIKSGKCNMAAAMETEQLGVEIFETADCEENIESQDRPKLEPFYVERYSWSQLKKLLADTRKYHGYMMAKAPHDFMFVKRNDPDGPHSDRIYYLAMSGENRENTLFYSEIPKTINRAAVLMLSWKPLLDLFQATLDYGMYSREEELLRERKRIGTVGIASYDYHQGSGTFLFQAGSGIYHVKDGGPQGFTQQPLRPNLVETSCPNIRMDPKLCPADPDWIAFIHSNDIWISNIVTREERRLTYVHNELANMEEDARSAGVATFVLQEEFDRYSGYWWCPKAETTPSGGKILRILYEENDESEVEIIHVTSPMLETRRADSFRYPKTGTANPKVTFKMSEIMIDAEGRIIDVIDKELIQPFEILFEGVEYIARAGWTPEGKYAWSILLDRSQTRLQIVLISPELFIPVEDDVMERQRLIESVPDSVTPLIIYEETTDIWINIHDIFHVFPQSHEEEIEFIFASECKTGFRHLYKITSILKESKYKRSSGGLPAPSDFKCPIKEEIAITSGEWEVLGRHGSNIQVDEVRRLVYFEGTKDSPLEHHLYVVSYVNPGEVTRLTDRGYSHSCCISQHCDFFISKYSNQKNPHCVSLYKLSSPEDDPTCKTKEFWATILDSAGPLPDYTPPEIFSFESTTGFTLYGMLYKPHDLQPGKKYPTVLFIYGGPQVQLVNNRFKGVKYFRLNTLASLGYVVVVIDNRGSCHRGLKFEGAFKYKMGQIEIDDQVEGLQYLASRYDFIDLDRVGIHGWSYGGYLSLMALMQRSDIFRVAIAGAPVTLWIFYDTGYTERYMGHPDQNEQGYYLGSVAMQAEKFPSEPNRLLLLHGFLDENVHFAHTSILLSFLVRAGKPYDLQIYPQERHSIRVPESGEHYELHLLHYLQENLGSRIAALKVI
T1 sequence (Q86TI2 whole entry): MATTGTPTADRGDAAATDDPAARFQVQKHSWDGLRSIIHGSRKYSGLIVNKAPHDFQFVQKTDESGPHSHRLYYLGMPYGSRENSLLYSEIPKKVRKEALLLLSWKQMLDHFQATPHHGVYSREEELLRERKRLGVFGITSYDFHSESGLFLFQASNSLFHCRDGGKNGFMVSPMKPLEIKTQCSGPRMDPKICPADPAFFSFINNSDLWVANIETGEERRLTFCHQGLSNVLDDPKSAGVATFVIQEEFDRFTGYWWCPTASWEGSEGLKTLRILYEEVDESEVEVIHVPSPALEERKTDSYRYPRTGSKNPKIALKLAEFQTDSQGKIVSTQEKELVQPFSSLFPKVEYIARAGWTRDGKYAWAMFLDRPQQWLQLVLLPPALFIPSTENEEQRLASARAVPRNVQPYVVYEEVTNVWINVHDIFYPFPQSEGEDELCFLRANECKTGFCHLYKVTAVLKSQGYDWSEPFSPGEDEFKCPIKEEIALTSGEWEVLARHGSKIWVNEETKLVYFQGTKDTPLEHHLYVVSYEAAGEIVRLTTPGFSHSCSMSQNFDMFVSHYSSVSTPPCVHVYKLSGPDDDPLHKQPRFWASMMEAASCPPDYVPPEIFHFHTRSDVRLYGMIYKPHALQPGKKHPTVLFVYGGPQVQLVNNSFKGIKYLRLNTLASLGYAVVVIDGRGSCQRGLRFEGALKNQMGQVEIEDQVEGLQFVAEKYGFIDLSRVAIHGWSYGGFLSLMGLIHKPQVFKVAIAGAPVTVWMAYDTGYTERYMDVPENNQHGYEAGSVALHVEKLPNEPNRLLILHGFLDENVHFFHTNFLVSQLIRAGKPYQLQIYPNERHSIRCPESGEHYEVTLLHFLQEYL
Sequence of DPP4 (P27487 whole entry): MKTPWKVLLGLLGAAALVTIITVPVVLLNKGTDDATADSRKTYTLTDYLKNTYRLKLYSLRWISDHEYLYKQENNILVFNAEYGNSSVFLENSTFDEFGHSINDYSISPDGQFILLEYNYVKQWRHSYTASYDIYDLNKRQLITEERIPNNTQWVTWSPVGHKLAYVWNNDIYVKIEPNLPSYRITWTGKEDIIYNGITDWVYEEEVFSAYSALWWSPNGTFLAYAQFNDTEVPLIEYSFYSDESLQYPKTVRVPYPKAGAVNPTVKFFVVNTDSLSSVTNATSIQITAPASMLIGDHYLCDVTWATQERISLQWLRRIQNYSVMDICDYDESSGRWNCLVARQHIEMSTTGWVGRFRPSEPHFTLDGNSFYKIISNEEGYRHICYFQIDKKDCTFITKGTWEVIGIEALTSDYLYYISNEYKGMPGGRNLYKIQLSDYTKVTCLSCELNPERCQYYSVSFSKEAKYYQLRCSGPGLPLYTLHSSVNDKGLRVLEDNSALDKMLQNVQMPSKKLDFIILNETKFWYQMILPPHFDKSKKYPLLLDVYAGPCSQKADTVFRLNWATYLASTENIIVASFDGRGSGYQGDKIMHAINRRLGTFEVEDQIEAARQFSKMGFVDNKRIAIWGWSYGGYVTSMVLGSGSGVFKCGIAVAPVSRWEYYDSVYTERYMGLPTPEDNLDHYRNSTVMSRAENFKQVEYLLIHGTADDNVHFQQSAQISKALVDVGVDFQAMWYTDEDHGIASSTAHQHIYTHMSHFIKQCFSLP

For orientation: IC50 means the midpoint of a concentration-inhibition curve. In the case of `N#C[C@@H]1CC(F)(F)CN1C(=O)CN1CC[C@H](Nc2ccnc3ccccc23)C1` [Example 7, (S)-4,4-difluoro-1-(2-((S)-3-(quinolin-4-ylamino)pyrrolidin-1-yl)acetyl)pyrrolidine-2-carbonitrile], the IC50 on DPP4 (setting [1]) was greater than 1 µM; on recombinant human DPP9 (setting [1]), 12.8 µM; on Recombinant human FAP (setting [2]), 0.00046 µM; at recombinant human PREP (setting [2]), greater than 100000 nM; at recombinant human DPP8 (setting [3]) it was 97.6 µM; at recombinant human DPP7, less than 0.03 µM.
On to `N#C[C@@H]1C[C@H](F)CN1C(=O)CN1CCC(Oc2ccc3cnccc3c2)CC1` [Example 422, (2S,4S)-4-fluoro-1-[2-[4-(6-isoquinolyloxy)-1-piperidyl]acetyl]pyrrolidine-2-carbonitrile], for which the IC50 is greater than 10 µM at DPP4 (recombinant human DPP4); 10.3 µM on recombinant human DPP9 (recombinant human DPP9); 0.0114 µM on Recombinant human FAP (setting [4]); 1410 nM at recombinant human PREP (recombinant human PREP); 6.42 µM on recombinant human DPP8 (recombinant human DPP8); 1.22 µM on recombinant human DPP7 (recombinant human DPP7).
As to `N#C[C@@H]1CCCN1C(=O)CN1CC[C@H](Oc2ccc(Cl)c3cccnc23)C1` [Example 81, (S)-1-(2-((S)-3-((5-chloroquinolin-8-yl)oxy)pyrrolidin-1-yl)acetyl)pyrrolidine-2-carbonitrile], the IC50 against DPP4 (setting [1]) was greater than 1 µM; at recombinant human DPP9 (setting [1]), 84.9 µM; on Recombinant human FAP (setting [2]) it was 0.0076 µM; at recombinant human PREP (setting [2]) it was 3930 nM; on recombinant human DPP8 (setting [3]), 27.4 µM; on recombinant human DPP7, 5.94 µM.
For `N#C[C@@H]1C[C@H](F)CN1C(=O)CN1CCC(Oc2ccnc3ccc(F)cc23)CC1` [Example 126, (2S,4S)-4-fluoro-1-(2-(4-((6-fluoroquinolin-4-yl)oxy)piperidin-1-yl)acetyl)pyrrolidine-2-carbonitrile], the IC50 against DPP4 (setting [1]) came to 7.96 µM; at recombinant human DPP9 (setting [1]), 11 µM; at Recombinant human FAP (setting [2]), 0.00084 µM; on recombinant human PREP (setting [2]) it was 1130 nM; at recombinant human DPP8 (setting [3]), 16.4 µM; at recombinant human DPP7, 10.4 µM.
On to `N#C[C@@H]1C[C@H](F)CN1C(=O)CN1CCC(Nc2ccnc3c(C(F)(F)F)cccc23)CC1` [Example 346, (2S,4S)-4-fluoro-1-[2-[4-[[8-(trifluoromethyl)-4-quinolyl]amino]-1-piperidyl]acetyl]pyrrolidine-2-carbonitrile], for which the IC50 worked out at 2.35 µM on DPP4 (recombinant human DPP4); 3.26 µM at recombinant human DPP9 (recombinant human DPP9); 0.0027 µM at Recombinant human FAP (setting [4]); 637 nM on recombinant human PREP (recombinant human PREP); 5.96 µM at recombinant human DPP8 (recombinant human DPP8); 0.339 µM on recombinant human DPP7 (recombinant human DPP7).
Turning to `N#C[C@@H]1CC(F)(F)CN1C(=O)CN1CC[C@H](Nc2cccc3ccsc23)C1` [Example 10, (S)-1-(2-((S)-3-(benzo[b]thiophen-7-ylamino)pyrrolidin-1-yl)acetyl)-4,4-difluoropyrrolidine-2-carbonitrile], the IC50 against DPP4 (setting [1]) was greater than 1 µM; on recombinant human DPP9 (setting [1]), 9.98 µM; on Recombinant human FAP (setting [2]) it was 0.0032 µM; at recombinant human PREP (setting [2]), greater than 100000 nM; on recombinant human DPP8 (setting [3]), 0.143 µM; on recombinant human DPP7 it was 0.075 µM.
Consider `N#C[C@@H]1C[C@H](F)CN1C(=O)CN1CC[C@H](Nc2ccc(C(F)(F)F)c3ncccc23)C1` [Example 265, (2S,4S)-4-fluoro-1-[2-[(3S)-3-[[8-(trifluoromethyl)-5-quinolyl]amino]pyrrolidin-1-yl]acetyl]pyrrolidine-2-carbonitrile], for which the IC50 is 1.24 µM at DPP4 (recombinant human DPP4); 5.42 µM on recombinant human DPP9 (recombinant human DPP9); 0.0008 µM at Recombinant human FAP (setting [4]); 1730 nM at recombinant human PREP (recombinant human PREP); greater than 100 µM on recombinant human DPP8 (recombinant human DPP8); 1.13 µM on recombinant human DPP7 (recombinant human DPP7).
`COc1ccc2c(O[C@H]3CCN(CC(=O)N4CCC[C@H]4C#N)C3)ccnc2c1` [Example 100, (S)-1-(2-((S)-3-((7-methoxyquinolin-4-yl)oxy)pyrrolidin-1-yl)acetyl)pyrrolidine-2-carbonitrile]: the IC50 at DPP4 (setting [1]) was greater than 1 µM; on recombinant human DPP9 (setting [1]), greater than 100 µM; at Recombinant human FAP (setting [2]) it was 0.0135 µM; at recombinant human PREP (setting [2]), 2490 nM; at recombinant human DPP8 (setting [3]), 73.8 µM; on recombinant human DPP7, 1.15 µM.
Take `N#C[C@@H]1C[C@H](F)CN1C(=O)CN1CCC(Nc2cc(F)cc3ncccc23)CC1` [Example 132, (2S,4S)-4-fluoro-1-(2-(4-((7-fluoroquinolin-5-yl)amino)piperidin-1-yl)acetyl)pyrrolidine-2-carbonitrile]: the IC50 turned out to be 7.43 µM against DPP4 (setting [1]); 3.64 µM at recombinant human DPP9 (setting [1]); 0.00217 µM on Recombinant human FAP (setting [2]); 2820 nM at recombinant human PREP (setting [2]); 13.9 µM at recombinant human DPP8 (setting [3]); 0.492 µM at recombinant human DPP7.
For `N#C[C@@H]1C[C@H](F)CN1C(=O)CN1CCC(Oc2cc(C(F)(F)F)nc3ccccc23)CC1` [Example 412, (2S,4S)-4-fluoro-1-[2-[4-[[2-(trifluoromethyl)-4-quinolyl]oxy]-1-piperidyl]acetyl]pyrrolidine-2-carbonitrile], the IC50 is greater than 10 µM at DPP4 (recombinant human DPP4); 69.8 µM at recombinant human DPP9 (recombinant human DPP9); 0.0059 µM on Recombinant human FAP (setting [4]); 1280 nM at recombinant human PREP (recombinant human PREP); 12 µM on recombinant human DPP8 (recombinant human DPP8); 10.7 µM on recombinant human DPP7 (recombinant human DPP7).
For the compound `COc1cc(NC2CCN(CC(=O)N3C[C@@H](F)C[C@H]3C#N)CC2)c2cccnc2c1` [Example 133, (2S,4S)-4-fluoro-1-(2-(4-((7-methoxyquinolin-5-yl)amino)piperidin-1-yl)acetyl)pyrrolidine-2-carbonitrile], the IC50 was 6.02 µM against DPP4 (setting [1]); 6 µM at recombinant human DPP9 (setting [1]); 0.00237 µM on Recombinant human FAP (setting [2]); 2600 nM on recombinant human PREP (setting [2]); 6.48 µM on recombinant human DPP8 (setting [3]); 0.153 µM on recombinant human DPP7.
The term inhibition denotes the change of the read-out against control, counted positive when it falls. Regarding `N#C[C@@H]1CC(F)(F)CN1C(=O)CN1CC[C@H](Nc2cccc(-c3ccccc3)c2)C1` [Example 16, (S)-1-(2-((S)-3-([1,1′-biphenyl]-3-ylamino)pyrrolidin-1-yl)acetyl)-4,4-difluoropyrrolidine-2-carbonitrile], the inhibition at 1 µM at DPP4 (read-out: hDPP4 inhibition % at 1 μM) stood at 11%. In addition, the IC50 was 13.7 µM on recombinant human DPP9 (setting [1]); 0.0026 µM on Recombinant human FAP (setting [2]); greater than 100000 nM at recombinant human PREP (setting [2]); 0.557 µM on recombinant human DPP8 (setting [3]); 0.0847 µM at recombinant human DPP7.
On to `N#C[C@@H]1C[C@H](F)CN1C(=O)CN1CCC(Oc2cc(C(F)(F)F)nc3ccc(F)cc23)CC1` [Example 413, (2S,4S)-4-fluoro-1-[2-[4-[[6-fluoro-2-(trifluoromethyl)-4-quinolyl]oxy]-1-piperidyl]acetyl]pyrrolidine-2-carbonitrile], for which the IC50 on DPP4 (recombinant human DPP4) was greater than 10 µM; on recombinant human DPP9 (recombinant human DPP9) it was greater than 100 µM; at Recombinant human FAP (setting [4]), 0.003 µM; at recombinant human PREP (recombinant human PREP), 26500 nM; at recombinant human DPP8 (recombinant human DPP8) it was 18.2 µM; on recombinant human DPP7 (recombinant human DPP7), greater than 100 µM.
